This data set can be described thus: method code SF, from DOI: 10.1016/0378-5173(89)90136-1.
Molecule `O=C(OCCOCCOCCO)c1ccccc1` returned a logP of 1.09.
Turning to `CCCCCCNC(=S)NC`, the log partition coefficient (logP) was 2.31.
In the case of `CCNC(=O)[C@@H](NC(=O)CNC(=O)c1ccccc1)C(C)C`, the lipophilicity (logP) came out at 1.05.
With `O=[N+]([O-])c1ccc(OCCN2CCOCC2)cc1`, the lipophilicity (logP) stood at 1.54.
Next, `CCNC(=O)CNC(=O)c1ccccc1`: 0.58; `O=C(OC1C2C=CC1C=C2)c1ccccc1` (stereo not given): 3.03; `COCCOC(=O)c1ccccc1`: 1.78.
Take `O=C(NCc1ccccc1O)c1ccccc1`: the logP came to 2.55.
Molecule `O=C(OCCO)c1ccccc1` gave a logP of 1.12.
`O=C(OCCNC(=O)C(F)(F)F)c1ccccc1` had a logP of 2.25.

By logP is commonly meant the decadic logarithm of the partition coefficient of the neutral form, usually between octanol and water. Lower therefore signals a more hydrophilic compound.

The record behind these values is the SangsterLogP compilation.
